Reference: US20040057958A1, “Immunogenicity-enhancing carriers and compositions thereof and methods of using the same” (priority 2002, published 2004)

Tested on: mice
Assay: ELISA of antisera from mice immunized with CPT1PaTXL
Assay type: in vivo
Settings: ten mice inoculated SC/IP with CPT1PaTXL (first two inoculations +PTA); any bleed, including the terminal bleed; TXL coupled to BSA for ELISA
Method: The hybridoma project began with a series of sequential inoculations by subcutaneous (SC) or interperitoneal (IP) injections of 100 μg of CPT1PaTXL formulated in PBS. In addition to the CPT1PaTXL, the first two inoculations also contained […] toxin as adjuvant (PTA). All subsequent inoculations were without PTA and had various amounts of CPT1PaTXL according to the following approximate schedule:
Ten mice were used in the immunization protocol. At each scheduled test bleed, 100 μl of blood was obtained from the tail, and an ELISA was conducted to evaluate reactivity against either Polyglutamate (PG) alone, Paclitaxel (TXL) or CT-2103. Because of the poor solubility of TXL in aqueous solutions, TXL was coupled to Bovine Serum Albumin, fraction V (Sigma Biochemicals, St. Louis Mo.) for ELISA testing. ELISA assays are performed as described in detail in Harlow, E. and Lane, D., Antibodies, A Laboratory Manual, Cold Spring Harbor Laboratory Press, 1988, pp. 564-569. Reactivity against the P. falciparum peptide epitope was analyzed following the terminal bleed.

CC(=O)O[C@H]1C(=O)[C@@]2(C)[C@H]([C@H](OC(=O)c3ccccc3)[C@]3(O)C[C@H](OC(=O)[C@H](O)[C@@H](NC(=O)c4ccccc4)c4ccccc4)C(C)=C1C3(C)C)[C@]1(OC(C)=O)CO[C@@H]1C[C@@H]2O [TXL, Paclitaxel] was tested, and the “antibody reactivity (anti-PG, anti-TXL, anti-CT-2103) in ELISA of test bleeds” value was “no detectable”.
